From the supplement of paper PMC10307832

Legend:
Assay in all cases: relative viability (nuclei count vs DMSO), 5 days (fraction); higher = more cells survive
[1] = system: NCI-H2405
Summary of the method: (§1)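 Relative viability is defined as nuclei in treated wells over nuclei in vehicle wells. Duplicate plates were run and medians reported. Lung cancer cell lines in 1536-well plates were dosed by pin tool one day after seeding, with one drug or with a fixed anchor-drug dose plus five library-drug doses (not always all listed) in √10 steps, and nuclei were counted after 5 days.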

[2] = system: HCC-366
Summary of the method: as §1

[3] = system: NCI-H522
Summary of the method: as §1

[4] = system: HCC-78
Summary of the method: as §1

[5] = system: COR-L 105
Summary of the method: as §1

[6] = system: SK-MES-1
Summary of the method: as §1

[7] = system: NCI-H1993
Summary of the method: as §1

[8] = system: HCC-15
Summary of the method: as §1

[9] = system: NCI-H647
Summary of the method: as §1

[10] = system: EMC-BAC-2
Summary of the method: as §1

[11] = system: NCI-H661
Summary of the method: as §1

[12] = system: A-427
Summary of the method: as §1

[13] = system: NCI-H460
Summary of the method: as §1

[14] = system: NCI-H1734
Summary of the method: as §1

[15] = system: COR-L23
Summary of the method: as §1

[16] = system: HOP-62
Summary of the method: as §1

[17] = system: 201T
Summary of the method: as §1

[18] = system: BEN
Summary of the method: as §1

[19] = system: LK-2
Summary of the method: as §1

[20] = system: NCI-H1915
Summary of the method: as §1

[21] = system: EKVX
Summary of the method: as §1

[22] = system: PC-14
Summary of the method: as §1

`Cc1csc(=NC2CCCCC2)n1/N=C/c1ccc(O)c(O)c1O` [MIM1] + CC(=O)c1c(C)c2cnc(Nc3ccc(N4CCNCC4)cn3)nc2n(C2CCCC2)c1=O [Palbociclib] (partner 0.5 µM) gave a relative viability ([1]; first compound 0.2 µM) of 0.512, a relative viability ([1]; first compound 0.6325 µM) of 0.549 and a relative viability ([1]; first compound 2 µM) of 0.605. It also gave a relative viability ([1]; first compound 6.325 µM) of 0.383, a relative viability ([1]; first compound 20 µM) of 0.351 and a relative viability ([2]; first compound 0.2 µM) of 0.384. It also gave a relative viability ([2]; first compound 2 µM) of 0.236, a relative viability ([2]; first compound 6.325 µM) of 0.127 and a relative viability ([2]; first compound 20 µM) of 0.0225. The relative viability ([3]; first compound 0.2 µM) was 0.819, the relative viability ([3]; first compound 0.6325 µM) was 0.921 and the relative viability ([3]; first compound 2 µM) was 0.932. The relative viability ([3]; first compound 6.325 µM) was 1.13, the relative viability ([3]; first compound 20 µM) was 0.61 and the relative viability ([4]; first compound 0.2 µM) was 0.463. For the same compound, the relative viability ([4]; first compound 2 µM) was 0.494, the relative viability ([4]; first compound 6.325 µM) was 0.377 and the relative viability ([4]; first compound 20 µM) was 0.402. It also gave a relative viability ([5]; first compound 0.2 µM) of 0.472, a relative viability ([5]; first compound 0.6325 µM) of 0.435 and a relative viability ([5]; first compound 2 µM) of 0.396. It also gave a relative viability ([5]; first compound 6.325 µM) of 0.396, a relative viability ([5]; first compound 20 µM) of 0.323 and a relative viability ([6]; first compound 0.2 µM) of 0.286. The relative viability ([6]; first compound 0.6325 µM) was 0.327, the relative viability ([6]; first compound 2 µM) was 0.282 and the relative viability ([6]; first compound 6.325 µM) was 0.259. For the same compound, the relative viability ([6]; first compound 20 µM) was 0.174, the relative viability ([7]; first compound 0.2 µM) was 0.624 and the relative viability ([7]; first compound 0.6325 µM) was 0.706. The relative viability ([7]; first compound 2 µM) was 0.659, the relative viability ([7]; first compound 6.325 µM) was 0.514 and the relative viability ([7]; first compound 20 µM) was 0.349. The relative viability ([8]; first compound 0.2 µM) was 0.763, the relative viability ([8]; first compound 0.6325 µM) was 0.709 and the relative viability ([8]; first compound 2 µM) was 0.763. It also gave a relative viability ([8]; first compound 6.325 µM) of 0.433, a relative viability ([8]; first compound 20 µM) of 0.121 and a relative viability ([9]; first compound 0.2 µM) of 0.395. For the same compound, the relative viability ([9]; first compound 0.6325 µM) was 0.404, the relative viability ([9]; first compound 2 µM) was 0.381 and the relative viability ([9]; first compound 6.325 µM) was 0.338. It also gave a relative viability ([9]; first compound 20 µM) of 0.0937, a relative viability ([10]; first compound 0.2 µM) of 0.543 and a relative viability ([10]; first compound 0.6325 µM) of 0.542. For the same compound, the relative viability ([10]; first compound 2 µM) was 0.476, the relative viability ([10]; first compound 6.325 µM) was 0.492 and the relative viability ([10]; first compound 20 µM) was 0.244. The relative viability ([11]; first compound 0.2 µM) was 0.404, the relative viability ([11]; first compound 0.6325 µM) was 0.42 and the relative viability ([11]; first compound 2 µM) was 0.348. For the same compound, the relative viability ([11]; first compound 6.325 µM) was 0.33, the relative viability ([11]; first compound 20 µM) was 0.301 and the relative viability ([12]; first compound 0.2 µM) was 0.523. For the same compound, the relative viability ([12]; first compound 0.6325 µM) was 0.471, the relative viability ([12]; first compound 2 µM) was 0.545 and the relative viability ([12]; first compound 6.325 µM) was 0.473. The relative viability ([12]; first compound 20 µM) was 0.337, the relative viability ([13]; first compound 0.2 µM) was 0.219 and the relative viability ([13]; first compound 0.6325 µM) was 0.169. It also gave a relative viability ([13]; first compound 2 µM) of 0.106, a relative viability ([13]; first compound 6.325 µM) of 0.0475 and a relative viability ([13]; first compound 20 µM) of 0.027. The relative viability ([14]; first compound 0.2 µM) was 0.32, the relative viability ([14]; first compound 0.6325 µM) was 0.361 and the relative viability ([14]; first compound 2 µM) was 0.34. For the same compound, the relative viability ([14]; first compound 6.325 µM) was 0.322, the relative viability ([14]; first compound 20 µM) was 0.193 and the relative viability ([15]; first compound 0.2 µM) was 0.301. For the same compound, the relative viability ([15]; first compound 0.6325 µM) was 0.328, the relative viability ([15]; first compound 2 µM) was 0.258 and the relative viability ([15]; first compound 6.325 µM) was 0.18. For the same compound, the relative viability ([15]; first compound 20 µM) was 0.138, the relative viability ([16]; first compound 0.2 µM) was 0.454 and the relative viability ([16]; first compound 0.6325 µM) was 0.44. It also gave a relative viability ([16]; first compound 2 µM) of 0.404, a relative viability ([16]; first compound 6.325 µM) of 0.431 and a relative viability ([16]; first compound 20 µM) of 0.127. For the same compound, the relative viability ([17]; first compound 0.2 µM) was 0.358, the relative viability ([17]; first compound 0.6325 µM) was 0.344 and the relative viability ([17]; first compound 2 µM) was 0.36. The relative viability ([17]; first compound 6.325 µM) was 0.327, the relative viability ([17]; first compound 20 µM) was 0.339 and the relative viability ([18]; first compound 0.2 µM) was 0.507. It also gave a relative viability ([18]; first compound 0.6325 µM) of 0.466, a relative viability ([18]; first compound 2 µM) of 0.438 and a relative viability ([18]; first compound 6.325 µM) of 0.468. It also gave a relative viability ([18]; first compound 20 µM) of 0.407, a relative viability ([19]; first compound 0.2 µM) of 0.774 and a relative viability ([19]; first compound 0.6325 µM) of 0.495. The relative viability ([19]; first compound 2 µM) was 0.468, the relative viability ([19]; first compound 6.325 µM) was 0.725 and the relative viability ([19]; first compound 20 µM) was 0.223. For the same compound, the relative viability ([20]; first compound 0.2 µM) was 0.527, the relative viability ([20]; first compound 0.6325 µM) was 0.529 and the relative viability ([20]; first compound 2 µM) was 0.497. For the same compound, the relative viability ([20]; first compound 6.325 µM) was 0.395, the relative viability ([20]; first compound 20 µM) was 0.181 and the relative viability ([21]; first compound 0.2 µM) was 0.332. The relative viability ([21]; first compound 0.6325 µM) was 0.367, the relative viability ([21]; first compound 2 µM) was 0.339 and the relative viability ([21]; first compound 6.325 µM) was 0.312. It also gave a relative viability ([21]; first compound 20 µM) of 0.286, a relative viability ([22]; first compound 0.2 µM) of 0.475 and a relative viability ([22]; first compound 0.6325 µM) of 0.554. The relative viability ([22]; first compound 2 µM) was 0.464, the relative viability ([22]; first compound 6.325 µM) was 0.454 and the relative viability ([22]; first compound 20 µM) was 0.145.
